In patent US8957097B2, “Hemi-phorboxazole A derivatives and methods of their use” (The Trustees Of The University Of Pennsylvania, priority 2009, dated 2015):
≈ marks a conversion by molar mass, not a printed value. Where two headings read alike, the source gives them in different places.

What was measured:
HCT-116 Colon = experiment: tumor cell growth inhibitory activity, HCT-116 colon; format: cell-based, human; settings: for IC50: Homo sapiens
Protocol: (§1) Compounds of the invention were assayed for tumor cell growth inhibitory activity, in parallel with (+) phorboxazole A (1) hemi-phorboxazole A (3).

C. albicans ACTCC 14503 = experiment: antifungal microbroth dilution assay, C. albicans ACTCC 14503; format: cell-based, Candida albicans; settings: for MIC: Candida albicans
Protocol: (§2) Tests of antifungal activity in microbroth dilution assay against pathogenic Candida strains was performed according to known methods. (National Committee for Clinical Laboratory Standards, 2002. Reference method for broth dilution antifungal susceptibility testing of yeast, 2nd ed. Approved standard M27-A2. National Committee for Clinical Laboratory Standards, Wayne, Pa.). For strains see: Mulder, R. J.; Shafer, C. M.; Dalisay, D. S.; Molinski, T. F. Bioorg. Med. Chem. Lett. 2009, 19, 2928-2930.

C. albicans UCD-FR1 = experiment: antifungal microbroth dilution assay, C. albicans UCD-FR1; format: cell-based, Candida albicans; settings: for MIC: Candida albicans
Protocol: as §2

C. albicans 96-489 = experiment: antifungal microbroth dilution assay, C. albicans 96-489; format: cell-based, Candida albicans
Protocol: as §2

SK-BR-3 Breast = experiment: tumor cell growth inhibitory activity, SK-BR-3 breast; format: cell-based, human; settings: for IC50: Homo sapiens
Protocol: as §1

[1] = tested on: National Cancer Institute's panel of 60 human tumor cell lines; settings: mean over NCI panel of 60 human tumor cell lines; cited from earlier work
[2] = Table 5, HCT-116 colon tumor cells
[3] = Table 6, HCT-116 colon tumor cells
[4] = Table 6, SK-BR-3 breast tumor cells

Row | Structure (SMILES) | HCT-116 Colon IC50 (HCT-116 Colon; [3]) [µg/mL] | C. albicans ACTCC 14503 MIC (C. albicans ACTCC 14503; Table 8, microbroth dilution) [µg/mL] | C. albicans UCD-FR1 MIC (C. albicans UCD-FR1; Table 8, microbroth dilution) [µg/mL] | C. albicans 96-489 MIC (C. albicans 96-489; Table 8, microbroth dilution) [µg/mL] | other results
1 | C=C1C[C@@H]2C[C@@H]3CCO[C@@H](O3)c3coc(n3)/C=C/C[C@H]3O[C@@H](/C(C)=C/C#N)[C@H](C)[C@@H](OC(=O)/C=C/C[C@@H](C1)O2)[C@H]3C [Compound (E, E)-5] | – | – | – | – | HCT-116 Colon IC50 (HCT-116 Colon; [2]): 1.54 µg/mL; C. albicans ACTCC 14503 MIC (C. albicans ACTCC 14503; Table 7, microbroth dilution): 4 µg/mL; C. albicans UCD-FR1 MIC (C. albicans UCD-FR1; Table 7, microbroth dilution): 8 µg/mL; C. albicans 96-489 MIC (C. albicans 96-489; Table 7, microbroth dilution): 32 µg/mL
2 | C=C1C[C@@H]2C[C@@H]3CCO[C@@H](O3)c3cccc(c3)/C=C/C[C@H]3O[C@@H](/C(C)=C/I)[C@H](C)[C@@H](OC(=O)/C=C/C[C@@H](C1)O2)[C@H]3C [Compound (E, E)-24] | >6.25 | >64 | >64 | >64 | –
3 | C=C1C[C@@H]2C[C@@H]3C[C@@H](O)C[C@@H](O3)c3coc(n3)/C=C/C[C@H]3O[C@@H](/C(C)=C/c4coc(C[C@]5(O)C[C@H](OC)C[C@H]([C@H](O)/C=C(C)/C=C/[C@@H](C/C=C/Br)OC)O5)n4)[C@H](C)[C@@H](OC(=O)/C=C\C[C@@H](C1)O2)[C@H]3C [Phorboxazole A] | 0.00071 | 1.0 | 2.0 | 1.0 | IC50 (HCT-116 Colon; Table 5, HCT-116 colon tumor cells, read-out: HCT-116 Colon IC50): 0.00071 µg/mL (≈ 0.000693 µM); IC50 (SK-BR-3 Breast; Table 5, SK-BR-3 breast tumor cells, read-out: SK-BR-3 Breast IC50): 0.002 µg/mL (≈ 0.00195 µM); MIC (C. albicans ACTCC 14503; ACTCC14503, Table 7, microbroth dilution, read-out: C. albicans ACTCC 14503 MIC): 1 µg/mL (≈ 0.977 µM); MIC (C. albicans UCD-FR1; UCDFR1, Table 7, microbroth dilution, read-out: C. albicans UCD-FR1 MIC): 2 µg/mL (≈ 1.95 µM); MIC (C. albicans 96-489; Candida albicans, 96489, Table 7, microbroth dilution, read-out: C. albicans 96-489 MIC): 1 µg/mL (≈ 0.977 µM); GI50 [1]: 1.58 nM
4 | C=C1C[C@@H]2C[C@@H]3CCO[C@@H](O3)c3cccc(c3)/C=C/C[C@H]3O[C@@H](/C(C)=C/I)[C@H](C)[C@@H](OC(=O)/C=C\C[C@@H](C1)O2)[C@H]3C [Compound (Z, E)-24] | >6.25 | >64 | >64 | >64 | –
5 | C=C1C[C@@H]2C[C@@H]3CCO[C@@H](O3)c3cccc(c3)/C=C/C[C@H]3O[C@@H](/C(C)=C/c4ncco4)[C@H](C)[C@@H](OC(=O)/C=C\C[C@@H](C1)O2)[C@H]3C [Compound 27] | 5.44 | 4 | 8 | 32 | –
6 | C=C1C[C@@H]2C[C@@H]3CCO[C@@H](O3)c3coc(n3)/C=C/C[C@H]3O[C@@H](/C(C)=C/I)[C@H](C)[C@@H](OC(=O)/C=C/C[C@@H](C1)O2)[C@H]3C [Compound (E, E)-15] | – | – | – | – | HCT-116 Colon IC50 (HCT-116 Colon; [2]): >6.25 µg/mL; C. albicans ACTCC 14503 MIC (C. albicans ACTCC 14503; Table 7, microbroth dilution): >64 µg/mL; C. albicans UCD-FR1 MIC (C. albicans UCD-FR1; Table 7, microbroth dilution): >64 µg/mL; C. albicans 96-489 MIC (C. albicans 96-489; Table 7, microbroth dilution): >64 µg/mL
7 | C=C1C[C@@H]2C[C@@H]3CCO[C@@H](O3)c3cccc(c3)/C=C/C[C@H]3O[C@@H](/C(C)=C/C#N)[C@H](C)[C@@H](OC(=O)/C=C/C[C@@H](C1)O2)[C@H]3C [Compound (E, E)-6] | >6.25 | >64 | >64 | >64 | –
8 | C=C1C[C@@H]2C[C@@H]3CCO[C@@H](O3)c3cccc(c3)/C=C/C[C@H]3O[C@@H](/C(C)=C/C#N)[C@H](C)[C@@H](OC(=O)/C=C\C[C@@H](C1)O2)[C@H]3C [Compound (Z, E)-6] | 0.207 | – | – | – | SK-BR-3 Breast IC50 (SK-BR-3 Breast; [4]): 0.258 µg/mL
9 | C=C1C[C@@H]2C[C@@H]3CCO[C@@H](O3)c3cccc(c3)/C=C\C[C@H]3O[C@@H](/C(C)=C/I)[C@H](C)[C@@H](OC(=O)/C=C/C[C@@H](C1)O2)[C@H]3C [Compound (E, Z)-24] | >6.25 | >64 | >64 | >64 | –
10 | C=C1C[C@@H]2C[C@@H]3CCO[C@@H](O3)c3coc(n3)/C=C/C[C@H]3O[C@@H](/C(C)=C/C#N)[C@H](C)[C@@H](OC(=O)/C=C\C[C@@H](C1)O2)[C@H]3C [Compound (Z, E)-5] | – | – | – | – | HCT-116 Colon IC50 (HCT-116 Colon; [2]): >6.2 µg/mL; SK-BR-3 Breast IC50 (SK-BR-3 Breast; Table 5, SK-BR-3 breast tumor cells): >6.2 µg/mL; C. albicans ACTCC 14503 MIC (C. albicans ACTCC 14503; Table 7, microbroth dilution): 16 µg/mL; C. albicans UCD-FR1 MIC (C. albicans UCD-FR1; Table 7, microbroth dilution): 16 µg/mL; C. albicans 96-489 MIC (C. albicans 96-489; Table 7, microbroth dilution): >64 µg/mL
11 | C=C1C[C@@H]2C[C@@H]3CCO[C@@H](O3)c3cccc(c3)/C=C/C[C@H]3O[C@@H](/C(C)=C/c4cccs4)[C@H](C)[C@@H](OC(=O)/C=C\C[C@@H](C1)O2)[C@H]3C [Compound 28] | 5.96 | 8 | 16 | 32 | –
12 | C=C1C[C@@H]2C[C@@H]3CCO[C@@H](O3)c3cccc(c3)/C=C\C[C@H]3O[C@@H](/C(C)=C/C#N)[C@H](C)[C@@H](OC(=O)/C=C/C[C@@H](C1)O2)[C@H]3C [Compound (E, Z)-6] | >6.25 | >64 | >64 | >64 | –
13 | C=C1C[C@@H]2C[C@@H]3C[C@@H](O)C[C@@H](O3)c3coc(n3)/C=C/C[C@H]3O[C@@H](/C(C)=C/C#N)[C@H](C)[C@@H](OC(=O)/C=C\C[C@@H](C1)O2)[C@H]3C [HEMI-PHORBOXAZOLE A, Hemi-Phorboxazole A] | >6.2 | >64 | >64 | >64 | IC50 (HCT-116 Colon; HCT-116, read-out: HCT-116 Colon IC50): > 6.2 µg/mL; IC50 (SK-BR-3 Breast; SK-BR-3, read-out: SK-BR-3 Breast IC50): > 6.2 µg/mL; SK-BR-3 Breast IC50 (SK-BR-3 Breast; [4]): >6.2 µg/mL; MIC (C. albicans ACTCC 14503; ACTCC14503, read-out: C. albicans ACTCC 14503 MIC): > 64 µg/mL; MIC (C. albicans UCD-FR1; UCDFR1, read-out: C. albicans UCD-FR1 MIC): > 64 µg/mL; MIC (C. albicans 96-489; Candida albicans, 96489, read-out: C. albicans 96-489 MIC): > 64 µg/mL
14 | C=C1C[C@@H]2C[C@H]3C[C@@H](O)C[C@H](O3)c3coc(n3)/C=C\C[C@H]3O[C@@H](/C(C)=C/c4coc(C[C@]5(O)C[C@H](OC)C[C@H]([C@H](O)/C=C(C)/C=C/[C@@H](C/C=C/Br)OC)O5)n4)[C@H](C)[C@@H](OC(=O)/C=C\C[C@@H](C1)O2)[C@H]3C [Compound 2, Phorboxazole B] | – | – | – | – | GI50 [1]: 1.58 nM
15 | C=C1C[C@@H]2C[C@@H]3CCO[C@@H](O3)c3coc(n3)/C=C/C[C@H]3O[C@@H](/C(C)=C/I)[C@H](C)[C@@H](OC(=O)/C=C\C[C@@H](C1)O2)[C@H]3C [Compound (Z, E)-15] | – | – | – | – | HCT-116 Colon IC50 (HCT-116 Colon; [2]): >6.25 µg/mL; C. albicans ACTCC 14503 MIC (C. albicans ACTCC 14503; Table 7, microbroth dilution): >64 µg/mL; C. albicans UCD-FR1 MIC (C. albicans UCD-FR1; Table 7, microbroth dilution): >64 µg/mL; C. albicans 96-489 MIC (C. albicans 96-489; Table 7, microbroth dilution): >64 µg/mL
